Measured values from PubChem BioAssay (NCI).
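Following 48 hours of exposure in 96-well plates, responses at five concentrations were used to interpolate endpoints linearly. GI50 is the concentration that inhibits growth by half. TGI marks complete inhibition of growth.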

Key:
Experiment in all cases: NCI tumour cell line growth inhibition, 48 h
[1] = test system: TK-10 renal
[2] = test system: OVCAR-5 ovarian
[3] = test system: ACHN renal
[4] = test system: SK-MEL-28 melanoma
[5] = test system: OVCAR-3 ovarian
[6] = test system: HOP-62 NSCLC
[7] = test system: DU-145 prostate
[8] = test system: CCRF-CEM leukemia
[9] = test system: MALME-3M melanoma
[10] = test system: BT-549 breast

SMILES | TGI [1] | TGI [2] | TGI [3] | TGI [4] | TGI [5] | TGI [6] | TGI [7] | TGI [8] | TGI [9] | TGI [10] | GI50 [1] | GI50 [5] | GI50 [7] | GI50 [9] | GI50 [10]
CN1CCCC(OC(=O)c2cc3cc(CCl)ccc3oc2=O)C1 (stereo not drawn) | 48.8 µM | 43.4 µM | 51.1 µM | 50.3 µM | 37.8 µM | 67.7 µM | > 100 µM | 55 µM | 44.3 µM | 49.2 µM | – | – | – | – | –
COCCN(C(=O)c1ccccc1)C1CCC(=O)c2[nH]c3ccccc3c21 (stereo not drawn) | 35.5 µM | 30.6 µM | 30.4 µM | 16 µM | 25.3 µM | 11.5 µM | 27.9 µM | 26.8 µM | 17.7 µM | 8.22 µM | – | – | – | – | –
CC(C)Oc1cc2c(cc1O)CC[C@@H]1[C@@H]2CC[C@]2(C)[C@@H](O)CC[C@@H]12 | 54.6 µM | 60.7 µM | > 84.7 µM | 56.6 µM | 12 µM | 18.1 µM | 59.7 µM | > 39.8 µM | 27.3 µM | 52.7 µM | – | – | – | – | –
CC1Cc2c(cc(N)nc2Br)NC1=O (stereo not drawn) | > 100 µM | > 100 µM | > 100 µM | > 100 µM | > 100 µM | > 100 µM | > 100 µM | > 100 µM | > 100 µM | > 100 µM | – | – | – | – | –
CCCOC1OC(CS(=O)(=O)O)C(OC(C)=O)C(OC(C)=O)C1OC(C)=O (stereo not drawn) | > 100 µM | > 100 µM | – | > 100 µM | > 100 µM | > 100 µM | > 100 µM | > 100 µM | > 100 µM | > 100 µM | – | – | – | – | –
CCCCCCCCCCC[N+]1(Cc2ccccc2)CC2CCN(Cc3ccccc3)CC2C1 (stereo not drawn) | 2.57 µM | 2.9 µM | 2.43 µM | 1.95 µM | 1.28 µM | 2.14 µM | 1.51 µM | 1.14 µM | 1.26 µM | 1.4 µM | – | – | – | – | –
C#Cc1cccc(Nc2ncnc3cc(OCCOC)c(OCCOC)cc23)c1 | 47.8 µM | > 100 µM | 32.2 µM | > 100 µM | > 100 µM | 59.7 µM | > 100 µM | > 100 µM | 43 µM | 98.7 µM | 0.196 µM | 3.53 µM | 1.6 µM | 1.85 µM | 33.4 µM
CC(=O)c1cc(S(=O)(=O)c2ccc(O)c(C(C)=O)c2)ccc1O | > 100 µM | > 100 µM | > 100 µM | > 100 µM | > 100 µM | > 100 µM | > 100 µM | > 100 µM | > 100 µM | > 100 µM | – | – | – | – | –
COC(=O)NC(Nc1ccc(C)cc1)(C(F)(F)F)C(F)(F)F | > 100 µM | > 100 µM | > 100 µM | > 100 µM | > 100 µM | > 100 µM | > 100 µM | > 100 µM | > 100 µM | > 100 µM | – | – | – | – | –
O=C(O)Cn1ncn(NC(=O)Cc2ccccc2)c1=S | > 10 µM | > 10 µM | > 10 µM | > 10 µM | > 10 µM | > 10 µM | > 10 µM | > 10 µM | > 10 µM | > 10 µM | – | – | – | – | –
Cc1ccc(C2(N3CCOCC3)OC(C)(C)c3cccc4cccc2c34)cc1 (stereo not drawn) | 39 µM | 34.4 µM | 31.6 µM | – | 34.4 µM | 32.9 µM | 37 µM | 65.7 µM | 36.9 µM | 33.6 µM | – | – | – | – | –
CN(c1ccc(Cl)cc1)S(=O)(=O)c1ccccc1 | > 100 µM | > 100 µM | > 100 µM | > 100 µM | > 100 µM | > 100 µM | > 100 µM | > 100 µM | > 100 µM | > 100 µM | – | – | – | – | –
CCOc1ccccc1N=NC1C(=O)N(C(=O)CC(=O)Nc2ccccc2OC)N=C1C (stereo not drawn) | > 100 µM | > 100 µM | > 100 µM | > 100 µM | > 100 µM | 39.4 µM | > 100 µM | > 100 µM | > 100 µM | > 100 µM | – | – | – | – | –
